Tests used:
[1] = target: T1, CXCR-4 transfected U87 cell line (U87.CXCR4) (Homo sapiens, UniProt P61073); test: Intracellular CXCL-12-induced calcium mobilization assay (FLIPR); assay type: cell-based; settings: U87.CXCR4 cells; CXCL-12 25-50 ng/mL; compounds added 15 minutes before; read-out: IC50 CXCL-12 Ca2+ flux U87.CXCR4+
T1 construct: expressed in transfected cells; host or cells: U87 cell line (U87.CXCR4)
Protocol: Intracellular calcium mobilization induced by chemokines orchemokine-derived peptides were evaluated using a calcium responsive fluorescent probe and a FLIPR system. The CXCR-4 transfected U87 cell line (U87.CXCR4) cells were seeded in gelatine-coated black-wall 96-well plates at 20,000 cells per well and incubated for 12 hours. Cells were then loaded with the fluorescent calcium probe Fluo-2 acetoxymethyl at 4 μM final concentration in assay buffer (Hanks' balanced salt solution with 20 mM HEPES buffer and 0.2% bovine serum albumin, pH 7.4) for 45 min at 37′C. The intracellular calcium mobilization induced by the CXCL-12 (25-50 ng/mL) was then measured at 37° C. by monitoring the fluorescence as a function of time in all the wells simultaneously using a fluorometric imaging plate reader (FLIPR Tetra, Molecular Devices).

[2] = target: T2, Jurkat cells expressing CXCR4 (Homo sapiens, UniProt P61073); test: Chemokine (CXCL12-AF647) binding inhibition assay; settings: CXCL12-AF647 25 ng/mL, read-out: IC50 CXCL-12 binding Jurkat
T2 construct: Jurkat cells expressing CXCR4; endogenous in cells; host or cells: Jurkat cells
Protocol: Jurkat cells expressing CXCR4 were washed once with assay buffer (Hanks' balanced salt solution with 20 mM HEPES buffer and 0.2% bovine serum albumin, pH 7.4) and then incubated for 15 min at room temperature with the test compounds diluted in assay buffer at dose-dependent concentrations. Subsequently, CXCL12-AF647 (25 ng/mL) was added to the compound-incubated cells. The cells were incubated for 30 min at room temperature. Thereafter, the cells were washed twice in assay buffer, fixed in 1% paraformaldehyde in PBS, and analyzed on the FL4 channel of a FACSCalibur flow cytometer equipped with a 635-nm red diode laser (Becton Dickinson, San Jose, Calif., USA).
The percentages of inhibition of CXCL12-AF647 binding were calculated according to the formula: [1−((MFI−MFINC)/(MFIPC−MFINC))]×100 where MFI is the mean fluorescence intensity of the cells incubated with CXCL12-AF647 in the presence of the inhibitor, MFINC is the mean fluorescence intensity measured in the negative control (i.e., autofluorescence of unlabeled cells), and MFIPC is the mean fluorescence intensity of the positive control (i.e., cells exposed to CXCL12-AF647 alone).

[3] = in vitro; settings: human, Caco-2, pH 7.4
Protocol: The goal of this assay was to evaluate the intestinal absorption potential of drug candidates using Caco-2 cell lines.
Experimental Procedure • 1. Pre-warm Pre-warm HBSS Buffer in 37° C. water bath • 2. Sonicate Take compounds from −20° C., sonicate for a few minutes (no less than 1 minute) • 3. Solution preparation
For A-to-B Direction: • HBSS buffer with 0.3% DMSO and 5 μM LY: add 150 μL DMSO and 50 μL LY (5 mM) into 50 ml HBSS buffer (pH 7.4). • HBSS buffer with 0.1% DMSO and 5 μM LY: add 50 μL DMSO and 50 μL LY (5 mM) into 50 mL HBSS buffer (pH 7.4).
For B-to-A Direction: • HBSS buffer with 0.3% DMSO: add 150 μL DMSO into 50 ml HBSS buffer (pH 7.4). HBSS buffer with 0.1% DMSO: add 50 μL DMSO into 50 ml HBSS buffer (pH 7.4).
For A-to-B Direction: • Prepare HBSS buffer with 0.4% DMSO: add 200 μL DMSO into 50 ml HBSS buffer (pH 7.4).
For B-to-A Direction: • Prepare HBSS buffer with 0.4% DMSO and 5 μM LY: add 200 μL DMSO and 50 μL LY (5 mM) into 50 ml HBSS buffer (pH 7.4).
• 4. Measure TEER Take cell culture plate out of incubator, wash the cell monolayers with HBSS buffer, and then measure TEER values at Rm temperature. • 5. Centrifuge Centrifuge the compound solution (from step 3) at 4000 rpm for 5 min before loading to donor chambers. • 6. Dosing Add solution based on the volumes listed in the following table (make sure to take extra 100 μL of donor sample for T0 as Backup).
• 7. Apical LYTO samples To determine LY concentration in the apical chamber, take 100 μL sample from apical chambers into an opaque plate for LYTO. • 8. Pre-warm Pre-warm apical and basolateral plates at 37° C. for about 5 min, then begin transport by placing the apical plate onto basolateral plate. • 9. Incubation Keep the plates in incubator at 37° C. for 90 min. • 10.
• Prepare 1× solution: • 3 μL (20×)+57 μL of 0.4% DMSO HBSS+60 μL ACN with IS (Osalmid or Imipramine)—120 μL (1×) • 11. Transport termination Separate the apical plate from the basolateral plate after 90-min incubation. • 12. Measure LY Take 100 μL samples from basolateral plate to an opaque plate as LYT90. • 13. Measure LY concentrations for LYTO and LYT90 by Fluorometer (at excitation of 485 nm/emission of 535 nm). • 14.
Drug permeability: Papp=(VA/(Area×time))×([drug]accepter/(([drug]initial, donor)×Dilution Factor) • Where VA is the volume in the acceptor well, area is the surface area of the membrane and time is the total transport time in seconds.
For Millicell-24 Cell Culture Plates: surface area of the membrane=0.7 cm^2, VA=0.8 mL (A-to-B) or 0.4 mL (B-to-A)

T2 sequence (P61073 whole entry): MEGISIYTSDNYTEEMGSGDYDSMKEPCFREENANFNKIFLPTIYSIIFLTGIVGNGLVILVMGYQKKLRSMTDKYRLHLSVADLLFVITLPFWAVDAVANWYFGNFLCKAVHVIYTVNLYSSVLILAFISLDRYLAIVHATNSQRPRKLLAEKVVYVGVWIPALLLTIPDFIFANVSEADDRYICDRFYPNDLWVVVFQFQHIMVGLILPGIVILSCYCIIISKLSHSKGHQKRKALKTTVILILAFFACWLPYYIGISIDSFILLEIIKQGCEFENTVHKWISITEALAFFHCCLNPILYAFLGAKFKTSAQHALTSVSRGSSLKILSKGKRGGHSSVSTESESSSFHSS
T1 sequence (P61073 whole entry): as above

Structure (SMILES)	IC50 [1]	IC50 [2]	Papp A→B at 90 min, 10 μM [3]	Papp B→A at 90 min, 10 μM [3]	efflux ratio at 90 min, 10 μM [3]
CC(c1ccccn1)N(CCc1ccccn1)Cc1ccccn1 (stereo not drawn) [Compound I-1, 2-(Pyridin-2-yl)-N-(1-(pyridin-2-yl)ethyl)-N-(pyridin-2-ylmethyl)ethan-1-amine]	≥ 1000 nM	0.01 to 100 nM			
CC(c1ccccn1)N(CCc1ccccn1)Cc1nc2ccccc2[nH]1 (stereo not drawn) [Compound I-2, N-((1H-benzo[d]imidazol-2-yl)methyl)-2-(pyridin-2-yl)-N-(1-(pyridin-2-yl)ethyl)ethanamine]	0.01 to 100 nM	0.01 to 100 nM	> 10 ×10⁻⁶ cm/s	> 10 ×10⁻⁶ cm/s	0.1 to 10
Cc1cccnc1CN(CCc1ccccn1)C(C)c1ccccn1 (stereo not drawn) [Compound I-3]	100 to 1000 nM	0.01 to 100 nM	> 10 ×10⁻⁶ cm/s	> 10 ×10⁻⁶ cm/s	0.1 to 10
Cc1cccnc1CN(CCc1ccccn1)Cc1ncccc1C [Compound I-4]	100 to 1000 nM	0.01 to 100 nM	> 10 ×10⁻⁶ cm/s	> 10 ×10⁻⁶ cm/s	0.1 to 10
Cc1cccnc1CN(CCc1ccccn1)Cc1ncccc1Cl [Compound I-5]	100 to 1000 nM	0.01 to 100 nM	> 10 ×10⁻⁶ cm/s	> 10 ×10⁻⁶ cm/s	0.1 to 10
CC(c1ccccn1)N(CCc1cnc[nH]1)Cc1ccccn1 (stereo not drawn) [Compound I-6]	≥ 1000 nM	0.01 to 100 nM	< 5 ×10⁻⁶ cm/s	> 10 ×10⁻⁶ cm/s	10 to 30
CC(c1ccccn1)N(CCc1cnc[nH]1)Cc1nc2ccccc2[nH]1 (stereo not drawn) [Compound I-7, N-((1H-benzo[d]imidazol-2-yl)methyl)-N-(2-(1H-imidazol-5-yl)ethyl)-1-(pyridin-2-yl)ethan-1-amine]	≥ 1000 nM	0.01 to 100 nM	< 5 ×10⁻⁶ cm/s	> 10 ×10⁻⁶ cm/s	> 30
Cc1cccnc1CN(CCc1cnc[nH]1)C(C)c1ccccn1 (stereo not drawn) [Compound I-8]	≥ 1000 nM	0.01 to 100 nM	< 5 ×10⁻⁶ cm/s	> 10 ×10⁻⁶ cm/s	10 to 30
Cc1cccnc1CN(CCc1cnc[nH]1)Cc1ncccc1C [Compound I-9]	0.01 to 100 nM	0.01 to 100 nM	< 5 ×10⁻⁶ cm/s	> 10 ×10⁻⁶ cm/s	10 to 30
Cc1cccnc1CN(CCc1cnc[nH]1)Cc1ncccc1Cl [Compound I-10]	100 to 1000 nM	0.01 to 100 nM	5 to 10 ×10⁻⁶ cm/s	> 10 ×10⁻⁶ cm/s	0.1 to 10
CC(c1ccccn1)N(CCC(N)=O)Cc1ccccn1 (stereo not drawn) [Compound I-11]	≥ 1000 nM	100 to 1000 nM	5 to 10 ×10⁻⁶ cm/s	> 10 ×10⁻⁶ cm/s	0.1 to 10
CC(c1ccccn1)N(CCC(N)=O)Cc1nc2ccccc2[nH]1 (stereo not drawn) [Compound I-12, 3-(((1H-benzo[d]imidazol-2-yl)methyl)(1-(pyridin-2-yl)ethyl)amino)propanamide]	≥ 1000 nM	100 to 1000 nM	< 5 ×10⁻⁶ cm/s	> 10 ×10⁻⁶ cm/s	> 30
Cc1cccnc1CN(CCC(N)=O)C(C)c1ccccn1 (stereo not drawn) [Compound I-13]	≥ 1000 nM	0.01 to 100 nM	> 10 ×10⁻⁶ cm/s	> 10 ×10⁻⁶ cm/s	0.1 to 10
Cc1cccnc1CN(CCC(N)=O)Cc1ncccc1C [Compound I-14, 3-(Bis((3-methylpyridin-2-yl)methyl)amino)propanamide]	≥ 1000 nM	100 to 1000 nM	> 10 ×10⁻⁶ cm/s	> 10 ×10⁻⁶ cm/s	0.1 to 10
Cc1cccnc1CN(CCC(N)=O)Cc1ncccc1Cl [Compound I-15]	≥ 1000 nM	100 to 1000 nM	> 10 ×10⁻⁶ cm/s	> 10 ×10⁻⁶ cm/s	0.1 to 10
c1cnc2c(c1)CCC[C@@H]2N(CCC1CCCCO1)Cc1nc2ccccc2[nH]1 (stereo partly drawn) [Compound I-16]	≥ 1000 nM	100 to 1000 nM	> 10 ×10⁻⁶ cm/s	> 10 ×10⁻⁶ cm/s	0.1 to 10
c1cnc2c(c1)CCC[C@@H]2N(CCC1CCCO1)Cc1nc2ccccc2[nH]1 (stereo partly drawn) [Compound I-17]	≥ 1000 nM	0.01 to 100 nM			
COCCCN(Cc1nc2ccccc2[nH]1)[C@H]1CCCc2cccnc21 [Compound I-18]	100 to 1000 nM	0.01 to 100 nM			
OCCCN(Cc1nc2ccccc2[nH]1)[C@H]1CCCc2cccnc21 [Compound I-19]	100 to 1000 nM	0.01 to 100 nM	> 10 ×10⁻⁶ cm/s	> 10 ×10⁻⁶ cm/s	0.1 to 10
c1cnc2c(c1)CCC[C@@H]2N(CCc1cscn1)Cc1nc2ccccc2[nH]1 [Compound I-20]	0.01 to 100 nM	0.01 to 100 nM	> 10 ×10⁻⁶ cm/s	> 10 ×10⁻⁶ cm/s	0.1 to 10
NC(=O)CCN(Cc1nc2ccccc2[nH]1)[C@H]1CCCc2cccnc21 [Compound I-21, (S)-3-(((1H-benzo[d]imidazol-2-yl)methyl)(5,6,7,8-tetrahydroquinolin-8-yl)amino)propanamide]	100 to 1000 nM	0.01 to 100 nM	< 5 ×10⁻⁶ cm/s	> 10 ×10⁻⁶ cm/s	> 30
Cn1c(CN(CCC(N)=O)[C@H]2CCCc3cccnc32)nc2ccccc21 [Compound I-22]	100 to 1000 nM	0.01 to 100 nM	5 to 10 ×10⁻⁶ cm/s	> 10 ×10⁻⁶ cm/s	10 to 30
CC(=O)NCCCN(Cc1ncccc1C)[C@H]1CCCc2cccnc21 [Compound I-29]	≥ 1000 nM	0.01 to 100 nM			
CC(=O)NCCN(Cc1ncccc1C)[C@H]1CCCc2cccnc21 [Compound I-30]	100 to 1000 nM	0.01 to 100 nM			
CC[C@H]1OC(=O)[C@H](C)[C@@H](O[C@H]2C[C@@](C)(OC)[C@@H](O)[C@H](C)O2)[C@H](C)[C@@H](O[C@@H]2O[C@H](C)C[C@H](N(C)C)[C@H]2O)[C@](C)(O)C[C@@H](C)C(=O)[C@H](C)[C@@H](O)[C@]1(C)O [Erythromycin, reference compound]					> 116
COCCc1ccc(OCC(O)CNC(C)C)cc1 (stereo not drawn) [Metoprolol, reference compound]			> 10 ×10⁻⁶ cm/s	> 10 ×10⁻⁶ cm/s	

— patent publication US20210009557A1, “ACYCLIC CXCR4 INHIBITORS AND USES THEREOF” (X4 Pharmaceuticals, Inc., priority 2017, published 2021)
